Source: the NIST ThermoML archive (doi:10.1007/s10765-010-0886-6)
Values joined by “and” are separate entries in the source; they are usually repeats but may differ in a detail not shown here. Equal entries are not always repeated. ± gives the expanded uncertainty stated by the source.

Conditions: gamma-densimeter

Fc1cc(F)c(F)c(F)c1F [pentafluorobenzene]
mass density
Conditions | Gas | Liquid
293.47 K | – | 1525.2 ± 3 kg/m3
314 K | 1.13 kg/m3 | 1483.8 ± 3 kg/m3
334 K | – | 1441.8 ± 3 kg/m3
353.98 K | – | 1399.8 ± 3 kg/m3
374.24 K | – | 1353.6 ± 3 kg/m3
393.95 K | 15.9 ± 1.5 kg/m3 | 1307.6 ± 3 kg/m3
413.94 K | 24.8 ± 2 kg/m3 and 24.9 ± 2 kg/m3 | 1257.5 ± 3 kg/m3
413.95 K | 24.7 ± 2 kg/m3 | –
433.98 K | 38.6 ± 2.5 kg/m3 | 1203 ± 3 kg/m3
454.02 K | 58.3 ± 2.5 kg/m3 | 1142.5 ± 3 kg/m3
473.98 K | 87.1 ± 2.5 kg/m3 | 1072.2 ± 3 kg/m3
493.99 K | 131.1 ± 3 kg/m3 | 986.7 ± 3 kg/m3
504.08 K | 163.1 ± 3 kg/m3 | 933.6 ± 3.1 kg/m3
514.2 K | 208.7 ± 3.1 kg/m3 | 866.1 ± 3.1 kg/m3
524.52 K | 287.7 ± 3.1 kg/m3 | 764.6 ± 3.2 kg/m3

Conditions | Critical temperature [K]
Liquid | 531.04 ± 0.2
